Assay results from patent publication US20260207618A1, “PYRIMIDINE CARBOXAMIDE COMPOUNDS” (Acrivon Therapeutics, Inc., priority 2022, published 2026).

Tests used:
[1] = molecular target: T1, recombinant human Wee1A kinase (Homo sapiens, UniProt P30291); assay: LanthaScreen Europium (Eu) Kinase Binding Assay, Wee1A kinase (TR-FRET tracer displacement); conditions: 30 nM tracer 178, 5 nM Wee1A kinase, 60 minutes at room temperature
T1 construct: full length Wee1A kinase was expressed by baculovirus in insect cells; purchased Invitrogen PV3817; host or cells: insect cells (baculovirus)
T1 sequence (P30291 whole entry): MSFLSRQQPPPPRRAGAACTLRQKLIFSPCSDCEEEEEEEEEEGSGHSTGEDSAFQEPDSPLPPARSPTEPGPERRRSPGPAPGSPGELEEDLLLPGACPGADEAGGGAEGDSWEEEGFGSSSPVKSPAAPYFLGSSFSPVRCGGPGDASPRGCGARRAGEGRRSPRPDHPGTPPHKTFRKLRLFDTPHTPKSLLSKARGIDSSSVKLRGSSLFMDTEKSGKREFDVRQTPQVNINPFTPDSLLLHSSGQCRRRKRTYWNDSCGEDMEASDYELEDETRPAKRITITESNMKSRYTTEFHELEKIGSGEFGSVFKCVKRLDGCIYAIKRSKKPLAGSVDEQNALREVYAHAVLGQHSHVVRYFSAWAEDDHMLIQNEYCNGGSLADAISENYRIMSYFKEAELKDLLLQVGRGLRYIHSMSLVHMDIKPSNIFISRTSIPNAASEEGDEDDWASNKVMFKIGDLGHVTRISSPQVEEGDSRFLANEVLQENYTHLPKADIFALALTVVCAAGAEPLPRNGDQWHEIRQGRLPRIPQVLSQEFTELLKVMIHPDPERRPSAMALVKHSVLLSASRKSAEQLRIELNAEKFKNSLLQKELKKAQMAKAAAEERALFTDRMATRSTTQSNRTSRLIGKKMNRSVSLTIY
Excerpt: We used a LanthaScreen Europium (Eu) Kinase Binding Assay to determine the binding of provided compounds to Wee1A kinase. The assay utilizes an Alexa Fluor 647-labeled ATP competitive kinase tracer that binds to the ATP binding site of a GST-tagged Wee1A kinase, while a europium (Eu) labeled antibody binds to the GST tag. The proximity of fluorescently labeled kinase tracer and europium (Eu) donor fluorophore antibody leads to fluorescence resonance energy transfer (FRET) to the fluorescence label (acceptor) upon excitation of the Eu (donor). Displacement of tracer from the ATP-binding site by a test compound disturbs the proximity between both labels thus lowering the FRET.
This time resolved-FRET binding assay was performed in white 384-well low volume plates (Greiner, cat #784075), at room temperature in kinase buffer A (KBA; Invitrogen cat #PV3189), consisting of 50 mM HEPES-NaOH (pH 7.5), 0.01% Brij-35, 10 mM MgCl2, and 1 mM EGTA. 5 μl of compound (diluted in reaction buffer, to 1% DMSO) were added to various wells in the plate, followed by 5 μl each of recombinant human Wee1A kinase (full length Wee1A kinase was expressed by baculovirus in insect cells using a N-terminal GST tag (MW: 99.1 kDa) (Invitrogen cat #PV3817) and LanthaScreen Eu-anti-GST antibody (Invitrogen, cat #PV5594). After this, 5 μl of kinase tracer 178 (Invitrogen, cat #PV5593) was added to the plate and the plate was incubated for 60 minutes at room temperature. The final assay conditions in each well were: 30 nM tracer 178, 5 nM Wee1A kinase and 2 nM Eu-labeled antibody in total assay volume of 15 μl. An Envision 2104 (Perkin-Elmer) Plate Reader with the following time-resolve fluorescence setting was used for performing LanthaScreen kinase binding assay. • Excitation 320 nm (30 nm bandpass) • Kinase Tracer Emission 665 nm (10 nm bandpass) • LanthaScreen Eu-anti-Tag Antibody Emission 615 nm (10 nm bandpass) • Dichroic Mirror Instrument dependent • Delay Time 100 μs • Integration Time 200 μs
To calculate the emission ratio, the acceptor/tracer emission ([…]) was divided by the antibody/donor emission ([…]) and the average of duplicate measurement was used for calculations. Data plotting, analysis of binding, and curve fitting was done using Excel add-in XLfit version 5.5.0.5 (IDBS, Guildford, United Kingdom).

[2] = tested on: Cdk1 phosphorylated on tyrosine 15; assay: High-content imaging of pCdk1 Y15 by immunofluorescence in ACHN cells; assay type: cell-based; conditions: Homo sapiens, high-content imaging (IF), 4 h, 7 to 5000 nM, read-out: CDK1 Tyr15 Phosphorylation EC50 (IC50)
Procedure: ACHN renal cell carcinoma cell line (ATCC) was cultured in Minimum Essential Medium Eagle supplemented with 10% fetal calf serum (Sigma), 1% Penicillin-Streptomycin and 10 mM HEPES buffer (HyClone). Cell cultures were kept in a humidified incubator at 37° C. and 5% CO2. Cells were routinely tested for Mycoplasma contamination.
High-content imaging of ACHN renal cell carcinoma cells was used for quantification of CDK1 phosphorylated on tyrosine 15 by immunofluorescence (“IF”). 20 000 cells per well were seeded in tissue culture treated 96 well plates and treated with compounds at concentrations ranging from 7 to 5000 nM for 4 h. Cells were fixated for 15 minutes in 4% paraformaldehyde solution, washed in PBS and permeabilized using 0.2% Triton X-100. Blocking was performed for 1 h at RT using Blocker FL Fluorescent Blocking Buffer (Thermo Scientific), thereafter cells were incubated with primary antibody (rabbit anti-pCDK1 Y^15, #4539, Cell Signaling Technology) at 4° C. ON. Alexa Fluor Plus 647 labelled goat anti-rabbit (A32733. Thermo Scientific) was used as secondary antibody. After washing in PBS, nuclei were stained with DAPI solution for 10 min at RT, protected from light. Cells were imaged using an ImageXpress Pico automated imaging system and CellReporter Xpress software (Molecular Devices). The percentage cells with nuclear positivity for pCdk1 Y^15 compared to DMSO control was determined for each well and drug dose response curves and EC50 values were calculated and visualized using GraphPad Prism.

IC50 [1] [nM] | EC50 [2] [nM] | SMILES
≤ 10 | 100 to 500 | COc1cc(Nc2ncc(C(=O)Nc3c(Cl)cccc3Br)c(OC)n2)ccc1C1CCN(C)CC1 [Compound 216, N-(2-bromo-6-chlorophenyl)-4-methoxy-2-((3-methoxy-4-(1-methylpiperidin-4-yl)phenyl)amino)pyrimidine-5-carboxamide]
≤ 10 | > 1000 | CCOc1nc(Nc2cnn([C@H](C)CNC)c2)ncc1C(=O)Nc1c(Cl)cccc1Br [Compound 203, N-(2-bromo-6-chlorophenyl)-2-{1-[(R)-1-methyl-2-(methylamino)ethyl]-4-pyrazolylamino}-4-ethoxy-5-pyrimidinecarboxamide]
≤ 10 | 100 to 500 | CCOc1nc(Nc2ccc(OC3CCNCC3)c(C)c2)ncc1C(=O)Nc1c(Cl)cccc1Br [Compound 221]
≤ 10 | 100 to 500 | CCCOc1cc(Nc2ncc(C(=O)Nc3c(Cl)cccc3Br)c(OC)n2)ccc1C1CCN(C)CC1 [Compound 218, N-(2-bromo-6-chlorophenyl)-4-methoxy-2-((4-(1-methylpiperidin-4-yl)-3-propoxyphenyl)amino)pyrimidine-5-carboxamide]
≤ 10 | 100 to 500 | COc1nc(Nc2ccc([C@@H]3CCCNC3)c(C)c2)ncc1C(=O)Nc1c(Cl)cccc1Br [Compound 199, (S)—N-(2-bromo-6-chlorophenyl)-4-methoxy-2-((3-methyl-4-(piperidin-3-yl)phenyl)amino)pyrimidine-5-carboxamide]
≤ 10 | > 1000 | CCOc1nc(Nc2cnn([C@H](C)CN(C)C)c2)ncc1C(=O)Nc1c(Cl)cccc1Br [Compound 204]
≤ 10 | 100 to 500 | COc1nc(Nc2ccc([C@H]3CCCNC3)c(C)c2)ncc1C(=O)Nc1c(Cl)cccc1Br [Compound 198, (R)—N-(2-bromo-6-chlorophenyl)-4-methoxy-2-((3-methyl-4-(piperidin-3-yl)phenyl)amino)pyrimidine-5-carboxamide]
≤ 10 | > 1000 | CCOc1nc(Nc2cnn([C@@H](C)CNC)c2)ncc1C(=O)Nc1c(Cl)cccc1Br [Compound 201, N-(2-bromo-6-chlorophenyl)-2-{1-[(S)-1-methyl-2-(methylamino)ethyl]-4-pyrazolylamino}-4-ethoxy-5-pyrimidinecarboxamide]

Second part, the molecule before the results:

SMILES | IC50 [1] [nM] | EC50 [2] [nM]
COc1nc(Nc2ccc(OC3CCN(C)CC3)c(C)c2)ncc1C(=O)Nc1c(Cl)ccc(O)c1C [Compound 152, N-(6-chloro-3-hydroxy-2-methylphenyl)-4-methoxy-2-((3-methyl-4-((1-methylpiperidin-4-yl)oxy)phenyl)amino)pyrimidine-5-carboxamide] | ≤ 10 | 100 to 500
COc1nc(Nc2cnn(C[C@@H]3CCNC3)c2)ncc1C(=O)Nc1c(Cl)cccc1Cl [Compound 164] | ≤ 10 | > 1000
Cc1cc(Nc2ncc(C(=O)Nc3c(Cl)cccc3Cl)c(OCC(F)(F)F)n2)ccc1C1CCN(C)CC1 [Compound 104, N-(2,6-dichlorophenyl)-2-{[3-methyl-4-(1-methylpiperidin-4-yl)phenyl]amino}-4-(2,2,2-trifluoroethoxy)pyrimidine-5-carboxamide] | ≤ 10 | 100 to 500
CCc1cccc(Cl)c1NC(=O)c1cnc(Nc2ccc(C3CCN(C)CC3)c(C)c2)nc1OC [Compound 132, N-(2-chloro-6-ethylphenyl)-4-methoxy-2-((3-methyl-4-(1-methylpiperidin-4-yl)phenyl)amino)pyrimidine-5-carboxamide] | ≤ 10 | 100 to 500
COc1nc(Nc2ccc(N3CCNCCC3=O)c(C)c2)ncc1C(=O)Nc1c(Cl)cccc1Cl [Compound 167] | ≤ 10 | 100 to 500
COc1nc(Nc2ccc(C3CCN(C)CC3)c(C)c2)ncc1C(=O)Nc1c(F)cc(F)cc1Cl [Compound 127, N-(2-chloro-4,6-difluorophenyl)-4-methoxy-2-((3-methyl-4-(1-methylpiperidin-4-yl)phenyl)amino)pyrimidine-5-carboxamide] | ≤ 10 | 100 to 500
COc1nc(Nc2ccc(C3CCN(C)CC3)c(C)c2)ncc1C(=O)Nc1c(Cl)cccc1C#N [Compound 137, N-(2-chloro-6-cyanophenyl)-4-methoxy-2-((3-methyl-4-(1-methylpiperidin-4-yl)phenyl)amino)pyrimidine-5-carboxamide] | 10 to 100 | > 1000
COc1nc(Nc2ccc(OCCCN3CCOCC3)c(C)c2)ncc1C(=O)Nc1c(Cl)cccc1Cl [Compound 148, N-(2,6-dichlorophenyl)-4-methoxy-2-((3-methyl-4-(3-morpholinopropoxy)phenyl)amino)pyrimidine-5-carboxamide] | ≤ 10 | > 1000
COc1nc(Nc2ccc(C3CCN(C)CC3)c(C)c2)ncc1C(=O)Nc1c(C)cccc1Br [Compound 108, N-(2-bromo-6-methylphenyl)-4-methoxy-2-((3-methyl-4-(1-methylpiperidin-4-yl)phenyl)amino)pyrimidine-5-carboxamide] | ≤ 10 | 100 to 500
COc1nc(Nc2ccc(C3CCN(C)CC3)c(C)c2)ncc1C(=O)Nc1c(C)cccc1Cl [Compound 106, N-(2-chloro-6-methylphenyl)-4-methoxy-2-((3-methyl-4-(1-methylpiperidin-4-yl)phenyl)amino)pyrimidine-5-carboxamide] | ≤ 10 | 100 to 500
COc1nc(Nc2ccc([C@H]3CCCN(C)C3)c(C)c2)ncc1C(=O)Nc1c(Cl)cccc1Br [Compound 196, (R)—N-(2-bromo-6-chlorophenyl)-4-methoxy-2-((3-methyl-4-(1-methylpiperidin-3-yl)phenyl)amino)pyrimidine-5-carboxamide] | ≤ 10 | 100 to 500
COc1nc(Nc2ccc(OCCN3CCOCC3)c(C)c2)ncc1C(=O)Nc1c(Cl)cccc1Cl [Compound 144, N-(2,6-dichlorophenyl)-4-methoxy-2-((3-methyl-4-(2-morpholinoethoxy)phenyl)amino)pyrimidine-5-carboxamide] | ≤ 10 | > 1000
COc1nc(Nc2ccc(C3CCN(C)CC3)c(C)c2)ncc1C(=O)Nc1c(F)cccc1Cl [Compound 113, N-(2-chloro-6-fluorophenyl)-4-methoxy-2-((3-methyl-4-(1-methylpiperidin-4-yl)phenyl)amino)pyrimidine-5-carboxamide] | ≤ 10 | 100 to 500
COc1nc(Nc2ccc(N3CCNCC3)c(C)c2)ncc1C(=O)Nc1c(Cl)cccc1Cl [Compound 162] | ≤ 10 | 100 to 500
COc1nc(Nc2ccc(C3CCN(C)CC3)c(C)c2)ncc1C(=O)Nc1c(C)cccc1C(F)(F)F [Compound 120, 4-methoxy-2-((3-methyl-4-(1-methylpiperidin-4-yl)phenyl)amino)-N-(2-methyl-6-(trifluoromethyl)phenyl)pyrimidine-5-carboxamide] | ≤ 10 | > 1000
COc1nc(Nc2ccc(OCCN(C)C)c(C)c2)ncc1C(=O)Nc1c(Cl)ccc(O)c1C [Compound 149, N-(6-chloro-3-hydroxy-2-methylphenyl)-2-((4-(2-(dimethylamino)ethoxy)-3-methylphenyl)amino)-4-methoxypyrimidine-5-carboxamide] | ≤ 10 | 100 to 500
